Laboratory results from US20110173718A1, “HERBICIDE TOLERANT PLANTS” (SYNGENTA CROP PROTECTION, INC., priority 2008, published 2011).
Where two headings read alike, the source gives them in different places. Marks after values point to notes of the source that are not given here. One block for each compound: values may come before it.

Tests used:
Chlamydomonas HST = biological target: T1, Chlamydomonas HST (Chlamydomonas reinhardtii, UniProt A1JHN0); test: HST assay (TLC, MFBQ formed), recombinant Chlamydomonas HST in E. coli membranes; type: biochemical; details: TLC, estimated amount of MFBQ formed, relative to controls
T1 construct: GST (N); made in house; host or cells: E. coli (BL21A1 / BL21DE3), membrane fraction
T1 sequence (A1JHN0 51-370): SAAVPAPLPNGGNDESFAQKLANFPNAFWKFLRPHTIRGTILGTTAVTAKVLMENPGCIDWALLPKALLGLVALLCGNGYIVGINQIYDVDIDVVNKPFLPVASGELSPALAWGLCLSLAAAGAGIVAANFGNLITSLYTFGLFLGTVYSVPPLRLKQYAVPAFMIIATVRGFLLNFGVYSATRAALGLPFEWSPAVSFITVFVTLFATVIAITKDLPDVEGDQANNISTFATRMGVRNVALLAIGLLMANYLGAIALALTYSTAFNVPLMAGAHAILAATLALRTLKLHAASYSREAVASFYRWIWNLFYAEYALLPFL
Description: Alternatively, Arabidopsis and Chlamydomonas mature HST coding sequences are cloned as GST N-terminal fusion enzymes and expressed in E. coli.
E. coli. BL21A1 cells expressing mature Arabidopsis or Chlamydonionas HST as a GST N-terminal fusion proteins are grown, harvested, broken and membrane fractions expressing HST produced.
For example, 1 ng of recombinant DNA is used to transform BL21DE3 cells to obtain a plateful of individual colonies. One of these colonies is picked and used to inoculate an overnight culture of 100 ml of Luria Broth (LB) supplemented with 50 ug/ml of kanamycin at final concentration, grown at 37° C. with shaking at 220 rpm. Next morning, 10 mls of the overnight culture is used to inoculate 11 of fresh sterile LB supplemented with 50 ug/ml of kanamycin at final concentration, grown at 37° C. with shaking at 220 rpm until the OD reached 0.6 at 600 nm, induced with the addition of 0.1 mM IPTG and left to induce at 15° C. overnight. The cells are harvested by centrifugation at 4600 rpm for 10 min at 4° C. and the pellet stored at −80° C. […] E. coli cell pellet is then resuspended in 25 ml of 50 mM Tris, pH 7.5 supplemented with Roche EDTA-free protease inhibitor tablet (one tablet in 200 mls of buffer). 10 ml of cells are lysed by sonication on ice. The resultant lysed cells are centrifuged at 3000 g for 10 min to pellet the cell nuclei/debris etc. 10 mls of supernatant is aspirated and centrifuged at 150,000 g for 60 min at 4° C. The pellet containing the membranes is resuspended in 2 ml of the above buffer. These samples are stored as 100 ul aliquots at −80° C., after being diluted with addition of glycerol to 50% v/v.
Prenyltransferase (HST) activities are measured by determining the prenylation rates of [U—^14C]homogentisate using farnesyl diphosphate (FDP) as prenyl donor. ^14C homogentisate is prepared from ^14C tyrosine using L amino acid oxidase and HPPD. For inhibitor testing, compounds are dissolved in dimethylsulfoxide (DMSO). DMSO added at up to 2% v/v has no effect on assays. Control assays contain DMSO at the same concentration as in inhibitor containing assays.
The recombinant Chlamydomonas HST expressed in E. coli membranes is assayed in standard reaction mixtures with 200 μM FDP and 100 μM ^14C-homogentisate (40 dpm/pmol) in 50 mM Tricine-NaOH pH 8.5, 20 mM MgCl2. Assays are started with the addition of enzyme and run for ˜20 min at 28° C.
Recombinant Arabidopsis and Rice HSTs are expressed in insect cells. Assays are run as for Chlamydomonas HST except that assay temperature is 27° C. Assays are stopped with 300 ul of solvent mix (1:2, Chloroform:Methanol) and 100 ul of 0.5% NaCl, agitated/mixed and spun at 13,000 rpm in a benchtop eppendorf centrifuge for 5 minutes. 80 ul of the lower phase extract is loaded onto a TLC plate (silica Gel 60, 20 cm×20 cm) FLA3000 system and run for 35 minutes in dichloromethane. The radioactivity is quantified using a Fuji Phosphoimager and band intensity integrated as quantitative measure of product amount. The bands corresponding to oxidised and reduced 2-methyl-6-farnesyl-1,4-benzoquinol (MFBQ) are identified and the total of the two (oxidised and reduced) band intensities is calculated in order to estimate the total amount of MFBQ product formation. Specific activities of 8 pmol MFBQ min^−1 mg^−1 protein (23 pmol) and 7 pmol MFBQ min^−1 mg^−1 protein (14 pmol) are, for example, estimated for the GST-fusion truncated Arabidopsis HST gene (SEQ ID # 3) expressed in membranes from insect cells 4 days and 5 days after transfection respectively. Similar results are noted from past literature on E. coli expressed Arabidopsis HST. Activity from the insect cell expressed GST-fusion truncated rice HST (SEQ ID# 4) is similar. Expression of the non-truncated HST coding sequences as GST fusions also gives HST activity. […]

Arabidopsis HST = biological target: T2, Arabidopsis HST (Arabidopsis thaliana, UniProt Q1ACB3); test: HST total extraction (non TLC) assay, recombinant Arabidopsis HST from insect cells; type: biochemical
T2 construct: GST (factor Xa cleavage site) (N); made in house; host or cells: Sf9 insect cells (baculovirus, pAcG3X), membrane fraction
T2 sequence (Q1ACB3 70-386): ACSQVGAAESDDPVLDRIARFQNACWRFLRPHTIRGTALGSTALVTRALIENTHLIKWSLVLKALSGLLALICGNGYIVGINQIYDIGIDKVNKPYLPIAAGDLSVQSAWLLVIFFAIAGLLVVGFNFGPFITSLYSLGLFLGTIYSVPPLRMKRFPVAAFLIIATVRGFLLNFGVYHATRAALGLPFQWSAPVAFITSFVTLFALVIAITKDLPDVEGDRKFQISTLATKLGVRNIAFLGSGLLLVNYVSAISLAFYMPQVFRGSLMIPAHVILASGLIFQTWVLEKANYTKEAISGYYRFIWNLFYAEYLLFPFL

weeds [1] = test: Glasshouse weed control, HST inhibitors alone and with A22, pre-emergence; type: in vivo; details: 336 h, 14 DAT; for pest or weed control at 15.625 g/ha: HST inhibitor rate 15.625 g/ha; for pest or weed control at 62.5 g/ha: HST inhibitor rate 62.5 g/ha; for pest or weed control at 250 g/ha: HST inhibitor rate 250 g/ha
Outline: (§1)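 Weeds grown in glasshouse trays (24-27 C day, 18-21 C night, ~15 h photoperiod) and track-sprayed in 0.2% X77 at […], pre-emergence or post-emergence at about 7-12 d. HPPD inhibitor A22 applied at 2 g/ha alone or mixed with HST herbicides. Damage scored 0–100% at 14 DAT; synergy calculated by Colby formula.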

weeds [2] = test: Glasshouse weed control, HST inhibitors alone and with A22, post-emergence; type: in vivo; details: 336 h, 14 DAT, single replicate, read-out: % control score, Obs; for pest or weed control at 15.625 g/ha: 15.625 g/ha alone; for pest or weed control at 62.5 g/ha: 62.5 g/ha alone; for pest or weed control at 250 g/ha: 250 g/ha alone
Outline: as §1

[3] = 3 point dose curves only conducted at 50 μM HPP
[4] = BRAPL, read-out: BRAPL Obs, % control score
[5] = PANMI, read-out: PANMI Obs, % control score
[6] = SIDSP, read-out: SIDSP Obs, % control score
[7] = Digitaria sanguinalis, DIGSA, read-out: DIGSA Obs, % control score
[8] = Echinochloa crus-galli, ECHCG, read-out: ECHCG Obs, % control score
[9] = Setaria faberi, SETFA, read-out: SETFA Obs, % control score

SMILES: Cn1c(=O)c(-c2c(F)ccc(F)c2Cl)c(O)c2nccnc21 [Compound 2.4]
Chlamydomonas. HST % I at 10 ppm (Chlamydomonas HST): 5%
Chlamydomonas. HST % I at 100 ppm (Chlamydomonas HST): 45%
Estimated IC50 (ppm) (Arabidopsis HST; [3]): 211* ppm

Estimated IC50 (ppm) (Arabidopsis HST): 16 ppm
SMILES: O=c1c(-c2c(Cl)cccc2C(F)(F)F)c(O)c2nccnc2n1CC(F)F [Compound 2.20]
pest or weed control at 15.625 g/ha (weeds [1]; [4]): 0%
pest or weed control at 62.5 g/ha (weeds [1]; [4]): 10%
pest or weed control at 250 g/ha (weeds [1]; [4]): 60%
pest or weed control at 15.625 g/ha (weeds [1]; [5]): 0%
pest or weed control at 62.5 g/ha (weeds [1]; [5]): 2%
pest or weed control at 250 g/ha (weeds [1]; [5]): 30%
pest or weed control at 15.625 g/ha (weeds [1]; [6]): 0%
pest or weed control at 62.5 g/ha (weeds [1]; [6]): 0%
pest or weed control at 250 g/ha (weeds [1]; [6]): 5%
pest or weed control at 15.625 g/ha (weeds [1]; [7]): 0%
pest or weed control at 62.5 g/ha (weeds [1]; [7]): 0%
pest or weed control at 250 g/ha (weeds [1]; [7]): 20%
pest or weed control at 15.625 g/ha (weeds [1]; [8]): 1%
pest or weed control at 62.5 g/ha (weeds [1]; [8]): 15%
pest or weed control at 250 g/ha (weeds [1]; [8]): 90%
pest or weed control at 15.625 g/ha (weeds [1]; [9]): 0%
pest or weed control at 62.5 g/ha (weeds [1]; [9]): 20%
pest or weed control at 250 g/ha (weeds [1]; [9]): 65%
pest or weed control at 15.625 g/ha (weeds [2]; BRAPL): 30%
pest or weed control at 62.5 g/ha (weeds [2]; BRAPL): 50%
pest or weed control at 250 g/ha (weeds [2]; BRAPL): 95%
pest or weed control at 15.625 g/ha (weeds [2]; PANMI): 15%
pest or weed control at 62.5 g/ha (weeds [2]; PANMI): 45%
pest or weed control at 250 g/ha (weeds [2]; PANMI): 85%
pest or weed control at 15.625 g/ha (weeds [2]; SIDSP): 10%
pest or weed control at 62.5 g/ha (weeds [2]; SIDSP): 50%
pest or weed control at 250 g/ha (weeds [2]; SIDSP): 55%
pest or weed control at 15.625 g/ha (weeds [2]; Digitaria sanguinalis, DIGSA): 20%
pest or weed control at 62.5 g/ha (weeds [2]; Digitaria sanguinalis, DIGSA): 60%
pest or weed control at 250 g/ha (weeds [2]; Digitaria sanguinalis, DIGSA): 80%
pest or weed control at 15.625 g/ha (weeds [2]; Echinochloa crus-galli, ECHCG): 20%
pest or weed control at 62.5 g/ha (weeds [2]; Echinochloa crus-galli, ECHCG): 60%
pest or weed control at 250 g/ha (weeds [2]; Echinochloa crus-galli, ECHCG): 90%
pest or weed control at 15.625 g/ha (weeds [2]; Setaria faberi, SETFA): 25%
pest or weed control at 62.5 g/ha (weeds [2]; Setaria faberi, SETFA): 65%
pest or weed control at 250 g/ha (weeds [2]; Setaria faberi, SETFA): 80%

SMILES: Cn1c(=O)c(-c2c(F)ccc(Br)c2Cl)c(O)c2nccnc21 [Compound 2.5]
Chlamydomonas. HST % I at 10 ppm (Chlamydomonas HST): 70%
Chlamydomonas. HST % I at 100 ppm (Chlamydomonas HST): 90%
Estimated IC50 (ppm) (Arabidopsis HST; [3]): 48* ppm
